Laboratory results taken from ChEMBL document CHEMBL3991601, “The target landscape of clinical kinase drugs” (Science, 2017).
Calls of active or inactive are those of the source.

Tests used:
[1] = target: T1, Acyl-CoA dehydrogenase family member 10 (Homo sapiens, UniProt Q6JQN1)
T1 sequence (Q6JQN1 whole entry): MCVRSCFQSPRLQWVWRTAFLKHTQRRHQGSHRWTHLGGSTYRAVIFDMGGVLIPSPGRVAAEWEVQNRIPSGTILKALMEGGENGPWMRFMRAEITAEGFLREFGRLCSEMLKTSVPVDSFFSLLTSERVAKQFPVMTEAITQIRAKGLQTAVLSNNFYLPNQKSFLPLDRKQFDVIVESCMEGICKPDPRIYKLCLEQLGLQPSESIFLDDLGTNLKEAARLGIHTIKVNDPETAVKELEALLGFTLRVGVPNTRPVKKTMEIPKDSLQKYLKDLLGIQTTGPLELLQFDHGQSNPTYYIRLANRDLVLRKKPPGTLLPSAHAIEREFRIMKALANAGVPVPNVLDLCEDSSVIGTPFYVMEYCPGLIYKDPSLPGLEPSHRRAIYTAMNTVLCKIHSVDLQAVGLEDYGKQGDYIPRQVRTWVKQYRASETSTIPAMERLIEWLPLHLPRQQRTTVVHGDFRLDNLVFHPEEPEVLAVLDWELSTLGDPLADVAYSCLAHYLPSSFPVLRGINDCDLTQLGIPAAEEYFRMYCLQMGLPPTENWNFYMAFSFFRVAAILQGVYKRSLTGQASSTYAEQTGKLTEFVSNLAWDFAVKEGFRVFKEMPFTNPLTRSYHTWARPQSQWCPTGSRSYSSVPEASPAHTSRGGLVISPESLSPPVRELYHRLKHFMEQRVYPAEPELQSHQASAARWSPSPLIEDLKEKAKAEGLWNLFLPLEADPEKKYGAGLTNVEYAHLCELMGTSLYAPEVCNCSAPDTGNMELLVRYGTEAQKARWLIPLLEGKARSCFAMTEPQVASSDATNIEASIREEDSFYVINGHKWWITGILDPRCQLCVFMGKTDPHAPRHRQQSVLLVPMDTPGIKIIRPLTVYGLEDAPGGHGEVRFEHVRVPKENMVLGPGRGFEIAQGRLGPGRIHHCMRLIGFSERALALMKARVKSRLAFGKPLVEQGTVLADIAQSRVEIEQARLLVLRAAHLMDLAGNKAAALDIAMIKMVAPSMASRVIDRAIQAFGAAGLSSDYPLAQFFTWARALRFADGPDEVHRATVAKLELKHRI

[2] = target: cAMP-dependent protein kinase catalytic subunit alpha (Homo sapiens, UniProt P17612)
[3] = target: T2, Exosome RNA helicase MTR4 (Homo sapiens, UniProt P42285)
T2 sequence (P42285 whole entry): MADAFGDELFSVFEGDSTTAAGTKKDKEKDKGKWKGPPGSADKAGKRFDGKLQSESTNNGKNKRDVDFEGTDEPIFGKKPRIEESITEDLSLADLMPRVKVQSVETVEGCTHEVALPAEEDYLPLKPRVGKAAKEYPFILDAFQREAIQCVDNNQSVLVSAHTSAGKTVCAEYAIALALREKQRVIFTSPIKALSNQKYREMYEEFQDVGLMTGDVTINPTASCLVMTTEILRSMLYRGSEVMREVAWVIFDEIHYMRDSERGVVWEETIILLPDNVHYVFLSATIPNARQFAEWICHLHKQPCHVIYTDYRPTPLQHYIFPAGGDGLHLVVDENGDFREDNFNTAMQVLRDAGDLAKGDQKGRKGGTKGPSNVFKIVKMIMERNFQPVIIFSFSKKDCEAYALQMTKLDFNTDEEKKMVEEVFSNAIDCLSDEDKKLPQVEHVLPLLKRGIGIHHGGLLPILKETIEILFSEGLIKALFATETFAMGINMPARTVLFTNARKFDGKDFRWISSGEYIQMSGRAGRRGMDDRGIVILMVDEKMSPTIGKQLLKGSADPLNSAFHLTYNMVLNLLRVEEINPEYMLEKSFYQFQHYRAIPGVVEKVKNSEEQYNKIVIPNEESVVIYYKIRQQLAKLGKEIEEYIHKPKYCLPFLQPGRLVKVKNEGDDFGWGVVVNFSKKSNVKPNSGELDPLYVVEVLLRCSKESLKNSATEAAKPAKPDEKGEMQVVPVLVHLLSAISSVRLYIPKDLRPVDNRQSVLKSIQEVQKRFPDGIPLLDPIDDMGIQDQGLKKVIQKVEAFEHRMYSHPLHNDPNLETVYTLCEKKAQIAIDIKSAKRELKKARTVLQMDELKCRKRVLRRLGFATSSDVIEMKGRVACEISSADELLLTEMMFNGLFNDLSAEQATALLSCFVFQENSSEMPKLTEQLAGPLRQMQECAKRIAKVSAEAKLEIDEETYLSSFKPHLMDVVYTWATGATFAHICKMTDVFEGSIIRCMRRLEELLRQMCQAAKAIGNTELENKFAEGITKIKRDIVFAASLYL

[4] = target: T3, Ras-related protein Rab-10 (Homo sapiens, UniProt P61026)
T3 sequence (P61026 whole entry): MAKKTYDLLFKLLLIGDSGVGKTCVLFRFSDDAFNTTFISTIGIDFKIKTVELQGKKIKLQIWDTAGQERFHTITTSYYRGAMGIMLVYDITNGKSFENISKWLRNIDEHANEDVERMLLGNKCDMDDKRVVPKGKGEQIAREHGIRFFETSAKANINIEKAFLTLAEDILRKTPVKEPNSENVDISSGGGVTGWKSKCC

Ephrin type-A receptor 2 = Ephrin type-A receptor 2 (Homo sapiens, UniProt P29317)
Activin receptor type-2B = Activin receptor type-2B (Homo sapiens, UniProt Q13705)
Further: in the data inactive means no Kd found up to 30 µM.

Chain of Activin receptor type-2B (Q13705 whole entry): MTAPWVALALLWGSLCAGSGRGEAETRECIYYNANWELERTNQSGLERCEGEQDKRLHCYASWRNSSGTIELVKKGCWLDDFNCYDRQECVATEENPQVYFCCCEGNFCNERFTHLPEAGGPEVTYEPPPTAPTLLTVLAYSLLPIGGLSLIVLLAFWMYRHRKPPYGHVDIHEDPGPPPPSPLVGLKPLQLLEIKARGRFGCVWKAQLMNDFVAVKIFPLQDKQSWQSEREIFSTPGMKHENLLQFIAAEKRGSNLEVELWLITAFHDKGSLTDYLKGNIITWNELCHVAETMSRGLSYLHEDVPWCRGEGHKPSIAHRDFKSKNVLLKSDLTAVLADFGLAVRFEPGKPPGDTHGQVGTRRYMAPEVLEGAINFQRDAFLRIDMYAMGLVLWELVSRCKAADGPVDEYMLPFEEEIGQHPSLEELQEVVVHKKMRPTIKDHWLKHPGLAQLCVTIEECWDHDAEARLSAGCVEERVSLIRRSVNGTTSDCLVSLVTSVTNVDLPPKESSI
Chain of Ephrin type-A receptor 2 (P29317 whole entry): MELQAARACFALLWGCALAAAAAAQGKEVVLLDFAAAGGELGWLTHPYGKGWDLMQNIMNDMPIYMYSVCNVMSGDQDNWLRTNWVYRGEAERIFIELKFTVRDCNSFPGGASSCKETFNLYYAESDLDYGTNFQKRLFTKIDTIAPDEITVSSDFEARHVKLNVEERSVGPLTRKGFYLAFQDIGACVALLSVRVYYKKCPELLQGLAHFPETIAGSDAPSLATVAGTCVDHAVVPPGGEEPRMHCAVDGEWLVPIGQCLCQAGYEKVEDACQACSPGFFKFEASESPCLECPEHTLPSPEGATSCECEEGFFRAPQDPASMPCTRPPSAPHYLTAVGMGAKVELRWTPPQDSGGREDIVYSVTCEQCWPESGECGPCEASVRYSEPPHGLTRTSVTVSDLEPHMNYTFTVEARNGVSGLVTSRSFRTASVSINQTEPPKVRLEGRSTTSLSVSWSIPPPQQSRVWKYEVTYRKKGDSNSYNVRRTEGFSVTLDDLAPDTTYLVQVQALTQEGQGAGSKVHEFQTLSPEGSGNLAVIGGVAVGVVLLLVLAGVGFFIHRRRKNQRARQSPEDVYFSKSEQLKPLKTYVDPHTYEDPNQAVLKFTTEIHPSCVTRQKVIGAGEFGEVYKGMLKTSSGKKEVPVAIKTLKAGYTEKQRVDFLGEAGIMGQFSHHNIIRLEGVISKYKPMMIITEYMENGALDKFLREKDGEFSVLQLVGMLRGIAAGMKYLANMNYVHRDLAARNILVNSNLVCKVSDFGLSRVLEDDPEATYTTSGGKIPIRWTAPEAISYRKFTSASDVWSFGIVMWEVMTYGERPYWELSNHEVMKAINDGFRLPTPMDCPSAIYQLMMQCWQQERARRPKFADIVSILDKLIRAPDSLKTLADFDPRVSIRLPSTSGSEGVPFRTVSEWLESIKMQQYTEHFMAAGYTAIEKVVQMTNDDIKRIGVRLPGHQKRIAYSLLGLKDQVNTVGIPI

SMILES	Kd [1]	Kd [2]	Kd [3]	Kd [4]	Kd (Ephrin type-A receptor 2)	Kd (Activin receptor type-2B)
Cc1c(NC(=O)OC[C@@H]2COCCN2)cn2ncnc(Nc3ccc4c(cnn4Cc4cccc(F)c4)c3)c12 [AC-480]	> 30 µM (inactive)	> 30 µM (inactive)	> 30 µM (inactive)	> 30 µM (inactive)	> 30 µM (inactive)	> 30 µM (inactive)
Cn1cc(-c2[nH]c3cc(NC(=O)[C@H](N)C4CCCCC4)cc4c3c2C=NNC4=O)cn1	> 30 µM (inactive)	> 30 µM (inactive)	> 30 µM (inactive)	> 30 µM (inactive)	> 30 µM (inactive)	> 30 µM (inactive)
CN(c1ncccc1CNc1nc(Nc2ccc3c(c2)CC(=O)N3)ncc1C(F)(F)F)S(C)(=O)=O [PF-00562271]	> 30 µM (inactive)	> 30 µM (inactive)	> 30 µM (inactive)	> 30 µM (inactive)	–	> 30 µM (inactive)
C[C@]1(O)C[C@@H](c2nc(-c3ccc4ccc(-c5ccccc5)nc4c3)c3c(N)nccn32)C1 [LINSITINIB]	> 30 µM (inactive)	–	> 30 µM (inactive)	> 30 µM (inactive)	–	> 30 µM (inactive)
COc1cc2ncnc(Nc3ccc(O)cc3)c2cc1OC [WHI-P131]	–	> 30 µM (inactive)	> 30 µM (inactive)	> 30 µM (inactive)	> 30 µM (inactive)	> 30 µM (inactive)
NC[C@@](O)(c1ccc(Cl)cc1)c1ccc(-c2cn[nH]c2)cc1 [AT-13148]	> 30 µM (inactive)	0.015 µM (active)	> 30 µM (inactive)	> 30 µM (inactive)	> 30 µM (inactive)	> 30 µM (inactive)
CNC(=O)c1cc(COc2nnc(Nc3ccc(Cl)cc3)c3ccoc23)ccn1 [TELATINIB]	> 30 µM (inactive)	> 30 µM (inactive)	> 30 µM (inactive)	> 30 µM (inactive)	> 30 µM (inactive)	> 30 µM (inactive)
Cn1c(=O)n(-c2ccc(C(C)(C)C#N)cc2)c2c3cc(-c4cnc5ccccc5c4)ccc3ncc21 [DACTOLISIB]	> 30 µM (inactive)	–	> 30 µM (inactive)	> 30 µM (inactive)	> 30 µM (inactive)	> 30 µM (inactive)
COc1cc(F)c(F)c(Nc2ccc(I)cc2F)c1NS(=O)(=O)C1(C[C@H](O)CO)CC1 [REFAMETINIB]	> 30 µM (inactive)	> 30 µM (inactive)	> 30 µM (inactive)	> 30 µM (inactive)	> 30 µM (inactive)	> 30 µM (inactive)
COc1cc2c(Oc3ccc4[nH]c(C)cc4c3F)ncnc2cc1OCCCN1CCCC1 [CEDIRANIB]	> 30 µM (inactive)	–	2.61 µM	> 30 µM (inactive)	–	–
COc1cc2c(N3CCN(C(=O)Nc4ccc(OC(C)C)cc4)CC3)ncnc2cc1OCCCN1CCCCC1 [TANDUTINIB]	> 30 µM (inactive)	–	> 30 µM (inactive)	> 30 µM (inactive)	–	–
CN(C)C/C=C/C(=O)Nc1cc2c(Nc3ccc(F)c(Cl)c3)ncnc2cc1O[C@H]1CCOC1 [AFATINIB]	> 30 µM (inactive)	–	> 30 µM (inactive)	> 30 µM (inactive)	–	–
CCN1CCN(Cc2ccc(Nc3ncc(F)c(-c4cc(F)c5nc(C)n(C(C)C)c5c4)n3)nc2)CC1 [ABEMACICLIB]	–	> 30 µM (inactive)	> 30 µM (inactive)	> 30 µM (inactive)	> 30 µM (inactive)	> 30 µM (inactive)
N#CCNC(=O)c1ccc(-c2ccnc(Nc3ccc(N4CCOCC4)cc3)n2)cc1 [MOMELOTINIB]	> 30 µM (inactive)	> 30 µM (inactive)	> 30 µM (inactive)	–	> 30 µM (inactive)	> 30 µM (inactive)
O=S(=O)(c1cccc2c(O)nccc12)N1CCCNCC1 [HYDROXYFASUDIL]	3.96 µM (active)	–	> 30 µM (inactive)	> 30 µM (inactive)	> 30 µM (inactive)	> 30 µM (inactive)
Cn1cnc2c(F)c(Nc3ccc(Br)cc3Cl)c(C(=O)NOCCO)cc21 [SELUMETINIB]	> 30 µM (inactive)	–	> 30 µM (inactive)	> 30 µM (inactive)	–	–
CC1(C)CNc2cc(NC(=O)c3cccnc3NCc3ccncc3)ccc21 [MOTESANIB]	> 30 µM (inactive)	–	> 30 µM (inactive)	> 30 µM (inactive)	–	–
C[C@@H]1COC(Nc2ccc3ncnc(Nc4ccc(OCc5nccs5)c(Cl)c4)c3c2)=N1 [VARLITINIB]	–	> 30 µM (inactive)	> 30 µM (inactive)	> 30 µM (inactive)	> 30 µM (inactive)	> 30 µM (inactive)
O=S(=O)(c1cccc2cnccc12)N1CCCNCC1 [FASUDIL]	> 30 µM (inactive)	–	> 30 µM (inactive)	> 30 µM (inactive)	–	> 30 µM (inactive)
CCN(CCCOc1ccc2c(Nc3cc(CC(=O)Nc4cccc(F)c4)n[nH]3)ncnc2c1)CCOP(=O)(O)O [BARASERTIB]	> 30 µM (inactive)	–	> 30 µM (inactive)	> 30 µM (inactive)	> 30 µM (inactive)	> 30 µM (inactive)
COc1cc2ncnc(Nc3ccc(F)c(Cl)c3)c2cc1NC(=O)/C=C/CN1CCCCC1 [DACOMITINIB ANHYDROUS]	> 30 µM (inactive)	> 30 µM (inactive)	> 30 µM (inactive)	–	> 30 µM (inactive)	> 30 µM (inactive)

Next, values leading:

Kd [1]	Kd [2]	Kd [3]	Kd [4]	Kd (Ephrin type-A receptor 2)	Kd (Activin receptor type-2B)	SMILES
> 30 µM (inactive)	> 30 µM (inactive)	> 30 µM (inactive)	> 30 µM (inactive)	> 30 µM (inactive)	–	NC(=O)c1ccc(N(C(N)=O)c2c(F)cccc2F)nc1-c1ccc(F)cc1F [VX-702]
> 30 µM (inactive)	> 30 µM (inactive)	> 30 µM (inactive)	> 30 µM (inactive)	> 30 µM (inactive)	> 30 µM (inactive)	Cc1cc(Nc2nc(N[C@@H](C)c3ncc(F)cn3)ncc2Cl)n[nH]1 [AZD-1480]
> 30 µM (inactive)	–	> 30 µM (inactive)	> 30 µM (inactive)	–	–	C[C@@]1(C(=O)Nc2ccc(F)nc2)CCCN1c1nc(Nc2cc(C3CC3)n[nH]2)c2cccn2n1 [BMS-754807]
> 30 µM (inactive)	> 30 µM (inactive)	> 30 µM (inactive)	–	> 30 µM (inactive)	> 30 µM (inactive)	CCOc1ccn(-c2ccc(F)cc2)c(=O)c1C(=O)Nc1ccc(Oc2ccnc(N)c2Cl)c(F)c1 [BMS-777607]
–	> 30 µM (inactive)	> 30 µM (inactive)	> 30 µM (inactive)	> 30 µM (inactive)	> 30 µM (inactive)	CC(C)(O)CC(=O)NCCn1ccc2ncnc(Nc3ccc(Oc4cccc(C(F)(F)F)c4)c(Cl)c3)c21 [TAK-285]
